Reference: PubChem BioAssay AID248 (DTP/NCI, 2004)
Several values for one entry are separate records, joined by “and”; a condition that tells them apart may be missing. Equal entries are not always repeated. Toxic doses and inconclusive results are not listed. Rule as the data show it: active = T/C of 150% or more; inactive = T/C below 125%. Square brackets hold non-standard residues; d marks the D form. Peptide text beside a SMILES is read from it. * marks the point of attachment. ξ: configuration not given here. Cbz = O=C(OCc1ccccc1)*; ξI = CCC(C)C(N)C(=O)O

Tested on: L1210 leukemia ip in BDF1 mice, survival T/C
Experiment: NCI In Vivo Anticancer Drug Screen. Data for tumor model L1210 Leukemia (intraperitoneal) in B6D2F1 (BDF1) mice
Conditions: endpoint: mean survival time, higher = longer survival
How it was run: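 Transplanted-tumor mice were given test agent; controls received vehicle only. Survival readings from the two groups were divided (treated over control).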

[1] = dose: 25.0 mg/kg/injection, schedule: Q01DX009 (ip), vehicle: saline
[2] = dose: 100.0 mg/kg/injection, schedule: Q04DX002 (ip), vehicle: saline
[3] = dose: 10.0 mg/kg/injection, schedule: Q01DX001 (ip), vehicle: saline
[4] = dose: 20.0 mg/kg/injection, schedule: Q01DX001 (ip), vehicle: saline
[5] = dose: 40.0 mg/kg/injection, schedule: Q01DX001 (ip), vehicle: saline
[6] = dose: 200.0 mg/kg/injection, schedule: Q01DX001 (ip), vehicle: saline
[7] = dose: 400.0 mg/kg/injection, schedule: Q01DX001 (ip), vehicle: saline
[8] = dose: 100.0 mg/kg/injection, schedule: Q01DX009 (ip), vehicle: saline with Tween-80
[9] = dose: 100.0 mg/kg/injection, schedule: Q04DX003 (ip), vehicle: saline with Tween-80
[10] = dose: 100.0 mg/kg/injection, schedule: Q01DX001 (ip), vehicle: other
[11] = dose: 200.0 mg/kg/injection, schedule: Q04DX003 (ip), vehicle: saline with Tween-80
[12] = dose: 400.0 mg/kg/injection, schedule: Q04DX003 (ip), vehicle: saline with Tween-80
[13] = dose: 100.0 mg/kg/injection, schedule: Q01DX001 (ip), vehicle: saline
[14] = dose: 100.0 mg/kg/injection, schedule: Q01DX001 (ip), vehicle: carboxymethylcellulose (CMC)
[15] = dose: 200.0 mg/kg/injection, schedule: Q01DX001 (ip), vehicle: carboxymethylcellulose (CMC)
[16] = dose: 200.0 mg/kg/injection, schedule: Q01DX009 (ip), vehicle: saline with Tween-80
[17] = dose: 400.0 mg/kg/injection, schedule: Q01DX009 (ip), vehicle: saline with Tween-80

Measured: T/C

CC1CN1P(=O)(N1CC1C)N1CC1C.CC1CN1P(=O)(N1CC1C)N1CC1C.CC1CN1P(=O)(N1CC1C)N1CC1C.CC1CN1P(=O)(N1CC1C)N1CC1C.[Cu+2].[O-][Cl+3]([O-])([O-])O (configuration not stated)
inactive: [1] 111 % of control | dose: 25.0 mg/kg/injection, schedule: Q04DX002 (ip), vehicle: saline 108 % of control | dose: 50.0 mg/kg/injection, schedule: Q01DX009 (ip), vehicle: saline 119 % of control | dose: 50.0 mg/kg/injection, schedule: Q04DX002 (ip), vehicle: saline 102 % of control | dose: 100.0 mg/kg/injection, schedule: Q01DX009 (ip), vehicle: saline 92 % of control | [2] 108 % of control and 119 % of control

CCOC(=O)CC(SP(=S)(Oc1ccccc1)Oc1ccccc1)C(=O)OCC (configuration not stated)
inactive: dose: 100.0 mg/kg/injection, schedule: Q04DX002 (sc), vehicle: olive oil, sesame oil, peanut oil 100 % of control | dose: 200.0 mg/kg/injection, schedule: Q04DX002 (sc), vehicle: olive oil, sesame oil, peanut oil 103 % of control | dose: 400.0 mg/kg/injection, schedule: Q04DX002 (sc), vehicle: olive oil, sesame oil, peanut oil 93 % of control

CCOP(=O)(OCC)O/N=C(/c1ccccc1)C(C)C
inactive: dose: 5.0 mg/kg/injection, schedule: Q01DX001 (ip), vehicle: saline 98 % of control | [3] 98 % of control | [4] 93 % of control | [5] 100 % of control

CCCC#CC(=O)OCC
inactive: [2] 91 % of control | dose: 200.0 mg/kg/injection, schedule: Q04DX002 (ip), vehicle: saline 97 % of control | dose: 400.0 mg/kg/injection, schedule: Q04DX002 (ip), vehicle: saline 89 % of control

O=c1[nH]c(=O)n(C2OC(CO)C(O)C2O)cc1O (configuration not stated)
inactive: dose: 100.0 mg/kg/injection, schedule: Q01DX001 (ip), vehicle: water 92 % of control | dose: 200.0 mg/kg/injection, schedule: Q01DX001 (ip), vehicle: water 94 % of control | dose: 400.0 mg/kg/injection, schedule: Q01DX001 (ip), vehicle: water 103 % of control

COc1ccc(C2ON2C2CCCCC2)cc1OC (configuration not stated)
inactive: [6] 106 % of control | [7] 100 % of control

N#CC1C(=O)c2ccccc2C1=O
inactive: dose: 25.0 mg/kg/injection, schedule: Q01DX009 (ip), vehicle: saline with Tween-80 92 % of control | dose: 50.0 mg/kg/injection, schedule: Q01DX009 (ip), vehicle: saline with Tween-80 91 % of control | [8] 89 % of control | [9] 94 % of control

CCCS/C(N)=N/N=C/c1ccc([N+](=O)[O-])o1
inactive: dose: 50.0 mg/kg/injection, schedule: Q01DX001 (ip), vehicle: other 96 % of control | [10] 94 % of control

O=C(O)C1CSC(c2ccccc2)N1 (configuration not stated)
inactive: [10] 105 % of control | dose: 176.0 mg/kg/injection, schedule: Q01DX001 (ip), vehicle: other 109 % of control and 91 % of control | dose: 200.0 mg/kg/injection, schedule: Q01DX001 (ip), vehicle: other 102 % of control | dose: 267.0 mg/kg/injection, schedule: Q01DX001 (ip), vehicle: other 96 % of control and 90 % of control | dose: 600.0 mg/kg/injection, schedule: Q01DX001 (ip), vehicle: other 101 % of control and 90 % of control

CCC(C)C(NC(=O)CNC(=O)OCc1ccccc1)C(=O)O (stereo not drawn) (Cbz-Gly-[ξI]-OH)
inactive: [9] 107 % of control | [11] 97 % of control | [12] 98 % of control

CN1CCc2c3n(c4ccccc24)C(=O)CCC31 (configuration not stated)
inactive: dose: 6.25 mg/kg/injection, schedule: Q01DX009 (ip), vehicle: saline 106 % of control | dose: 12.5 mg/kg/injection, schedule: Q01DX009 (ip), vehicle: saline 101 % of control | [1] 104 % of control

O=C(Sc1ccccc1)n1nc(Cl)c2ccc([N+](=O)[O-])cc21
inactive: [13] 94 % of control | [6] 94 % of control | [7] 90 % of control

CN(C(=O)c1cccnc1)c1ccccc1
inactive: [9] 94 % of control | [11] 96 % of control | [12] 107 % of control

Nc1cccc(-c2csc(N)n2)c1
inactive: [14] 100 % of control | [15] 100 % of control

O=[N+]([O-])C1CCCCC1O (configuration not stated)
inactive: [3] 103 % of control | [4] 105 % of control | [5] 100 % of control

NC(=O)c1cccn1-c1cccc2c(-n3cccc3C(N)=O)cccc12
inactive: dose: 50.0 mg/kg/injection, schedule: Q04DX002 (ip), vehicle: saline with Tween-80 89 % of control

Cc1ccc(NC(=O)COc2ccc(Cl)cc2)c([N+](=O)[O-])c1
inactive: dose: 100.0 mg/kg/injection, schedule: Q01DX009 (ip), vehicle: Klucel (hydroxypropylcellulose) (HPC) 101 % of control | dose: 100.0 mg/kg/injection, schedule: Q04DX003 (ip), vehicle: Klucel (hydroxypropylcellulose) (HPC) 88 % of control | dose: 200.0 mg/kg/injection, schedule: Q01DX009 (ip), vehicle: Klucel (hydroxypropylcellulose) (HPC) 101 % of control | dose: 200.0 mg/kg/injection, schedule: Q04DX003 (ip), vehicle: Klucel (hydroxypropylcellulose) (HPC) 90 % of control | dose: 400.0 mg/kg/injection, schedule: Q01DX009 (ip), vehicle: Klucel (hydroxypropylcellulose) (HPC) 91 % of control | dose: 400.0 mg/kg/injection, schedule: Q04DX003 (ip), vehicle: Klucel (hydroxypropylcellulose) (HPC) 88 % of control

CCCCC(=O)N/N=C/c1ccc(Cl)cc1
inactive: [14] 93 % of control | [15] 107 % of control | dose: 400.0 mg/kg/injection, schedule: Q01DX001 (ip), vehicle: carboxymethylcellulose (CMC) 91 % of control

Nc1nc2ncnc(N)c2nc1-c1ccc(N(CCO)CCO)cc1
inactive: [13] 104 % of control | [6] 95 % of control | [7] 100 % of control

COc1ccccc1-n1c(O)c(N=Nc2ccccc2C)c(=O)n(-c2ccc(Br)cc2)c1=S
inactive: dose: 37.5 mg/kg/injection, schedule: Q01DX001 (ip), vehicle: Klucel (hydroxypropylcellulose) (HPC) 94 % of control | dose: 75.0 mg/kg/injection, schedule: Q01DX001 (ip), vehicle: Klucel (hydroxypropylcellulose) (HPC) 106 % of control | dose: 150.0 mg/kg/injection, schedule: Q01DX001 (ip), vehicle: Klucel (hydroxypropylcellulose) (HPC) 87 % of control

ClCCN(CCCl)c1ccc(CNCCCNCc2ccc(N(CCCl)CCCl)cc2)cc1
inactive: dose: 5.0 mg/kg/injection, schedule: Q01DX001 (ip), vehicle: carboxymethylcellulose (CMC) 105 % of control | dose: 10.0 mg/kg/injection, schedule: Q01DX001 (ip), vehicle: carboxymethylcellulose (CMC) 110 % of control | dose: 20.0 mg/kg/injection, schedule: Q01DX001 (ip), vehicle: carboxymethylcellulose (CMC) 103 % of control

CCOC(=O)c1cc(C(=O)O)[nH]c(=O)c1C#N
inactive: [9] 97 % of control | [12] 95 % of control

CCCCOB=O
inactive: [8] 96 % of control | [16] 106 % of control | [17] 98 % of control

CCC(C(N)=O)N1C(=O)C2C3CCC(O3)C2C1=O (configuration not stated)
inactive: dose: 100.0 mg/kg/injection, schedule: Q04DX003 (ip), vehicle: saline 101 % of control | dose: 200.0 mg/kg/injection, schedule: Q04DX003 (ip), vehicle: saline 97 % of control | dose: 400.0 mg/kg/injection, schedule: Q04DX003 (ip), vehicle: saline 101 % of control

O=c1[nH]c(=O)n(CCc2cccs2)cc1F
inactive: [8] 98 % of control | [9] 93 % of control | [16] 96 % of control | [11] 96 % of control | [17] 98 % of control | [12] 95 % of control
